Converted amounts (≈) assume the structure as drawn. Where two headings read alike, the source gives them in different places.
How the values were obtained:
S. pneumoniae PBS 1339 = conditions: neutropenic CD-1 male mice, single IV dose 2 hours post infection, survival at 72 hours post infection
S. aureus RN450-1 [1] = assay: S. aureus Thigh Wound Infection Model; format: in vivo; conditions: Staphylococcus aureus, RN4501, in Mus musculus, iv, read-out: S. aureus RN450-1 Thigh ED50
Protocol: Bacterial cultures were prepared by growing S. aureus RN450-1 overnight and diluting with sterile PBS. An injection of 100 μL of ˜1×10^6 CFU/mL in sterile PBS was injected into the thigh. Four groups of mice for each drug received doses of 0.33, 1, 3, or 9 mg/kg intravenously at 2 and 6 hours post infection. An additional group of untreated mice served as a negative control group. At 24 hours post infection, the thighs were collected aseptically, homogenized, and plated to enumerate bacterial load per thigh. Data are reported as ED50 values.

S. aureus RN450-1 [2] = assay: S. aureus Systemic Intraperitoneal Challenge (IPC) Model; format: in vivo; conditions: CD-1 male mice, single SC dose 1 hour post infection, survival at 48 hours post infection
Protocol: Bacterial cultures were prepared by growing tetracycline-sensitive S. aureus RN450-1 overnight, then diluting with sterile phosphate-buffered saline (PBS). For each experiment, a total of 30 mice were infected by injection into the intraperitoneal cavity with 500 μl of 7.5×10^7 CFU in 5% sterile bacteriological mucin. […] The doses were administered subcutaneously (SC) at 1 hour post infection. An additional infected group of 5 mice was included as a negative control (untreated) group. For all studies but one, a positive control group(s) was included (e.g., doxycycline, minocycline, or ciprofloxacin). Mice were monitored for survival for up to 7 days. […] PD50 (protective dose, 50%) is the dose required to achieve 50% survival. The PD50 values reported are a mean of 2-3 independent experiments for each drug tested.

[3] = tested on: Carrageenan-Induced Rat Footpad Edema; assay: Rat Carrageenan-Induced Footpad Edema inflammation model; format: in vivo; conditions: 3 hours post carrageenan
Protocol: Immediately following the carrageenan injection and 3 hours post-injection, the hind paw volume was measured with a digital water plethysmometer. Results were calculated as a percent change in paw volume over the 3 hours, divided by the baseline paw volume, and then adjusted for the mean percent inflammation in the untreated controls, and are presented in Table 10.

Salmonella spp. = assay: In vitro MIC testing, antibacterial spectrum of activity; format: cell-based
E. coli = assay: as above; format: cell-based
[4] = Differential scanning calorimetry (DSC); format: physicochemical; conditions: after synthesis
Protocol: DSC analysis as disclosed herein was collected on a TA Instruments Q2000 equipped with a 50 position auto-sampler. The instrument was calibrated for energy and temperature using certified indium. The calibration for thermal capacity was carried out using sapphire. […] A nitrogen purge at 50 ml.min^−1 was maintained over the sample. The instrument control software used was Advantage for Q Series v2.8.0.392 and Thermal Advantage v4.8.3 and the data was analyzed using Universal Analysis v4.4A. […] The observed apparent weight loss is due to instability of the machine. Table 5 below compares the DSC and TGA analysis of the crystalline salts of the present invention with the crystalline free base and Comparative Example 1.

[5] = Thermo-gravimetric analysis (TGA); format: physicochemical
Protocol: TGA is used to determine changes in weight in relation to change in temperature, which may reveal degradation of the compound and the presence of solvates or hydrates. TGA analysis as disclosed herein was collected on a TA Instruments Q500 TGA equipped with a 16 position auto-sampler. The instrument was temperature calibrated using certified Alumel and Nickel. […] A nitrogen purge at 60 ml.min^−1 was maintained over the sample. The instrument control and data analysis software used was Advantage for Q Series v2.8.0.392 and Thermal Advantage v4.8.3 and the data was analyzed using Universal Analysis v4.4A. […] The observed apparent weight loss is due to instability of the machine. Table 5 below compares the DSC and TGA analysis of the crystalline salts of the present invention with the crystalline free base and Comparative Example 1.

[6] = Storage stability by HPLC-UV (chemical purity, β-isomer content, total impurity content); format: physicochemical
Protocol: The lower the β-isomer content, the higher the chemical purity of the salt. The β-isomer content is measured after synthesis of the salt and compared with the measured β-isomer content after storage for a designated period of time.
Another measure of chemical purity is defined by the content of other related impurities, by-products or degradation products of the salt, which represents the […] of the compound. The lower the content of total impurities as measured by HPLC, generally, by HPLC-UV, the higher the chemical purity of the salt. The total impurity content is measured after synthesis of the salt and compared with the measured total impurity content after storage for a designated period of time.
In order to determine the stability of Crystalline Mono Hydrochloride Salt, the β-isomer content of the salt was determined by HPLC-UV analysis and compared to the β-isomer content calculated after the salt was stored in an amber glass vial for approximately 75 days at ambient conditions.
The β-isomer content of Comparative Example 2 was also determined by HPLC-UV analysis at 0 days and compared to the β-isomer content calculated after the compound was stored in a clear glass vial for approximately 75 days at ambient conditions.
HPLC-UV and XRPD analysis were conducted on samples of Crystalline Mono Hydrochloride Salt, Crystalline Mesylate Salt and Crystalline Sulfate Salt at 0 days and after storage for 7 days at 40° C. and 75% RH. FIGS. 1, 4 and 7 show the XRPD analysis of the Crystalline Mono Hydrochloride Salt, Crystalline Mesylate Salt and Crystalline Sulfate Salt at 0 days and after storage at 40° C. and 75% RH with the graphs overlaid for comparison.
The results of HPLC-UV analysis for the same samples of Crystalline Mesylate Salt and Crystalline Sulfate Salt are shown in Table 4.

E. faecium = assay: In vitro MIC testing, antibacterial spectrum of activity; format: cell-based; conditions: Enterococcus faecium, vancomycin-susceptible E. faecium
Staphylococcus aureus = assay: Inhibition of macromolecular synthesis in Staphylococcus aureus (whole-cell assay); format: cell-based; conditions: S. aureus, at 8-fold the MIC
E. cloacae = assay: In vitro MIC testing, antibacterial spectrum of activity; format: cell-based; conditions: Enterobacter cloacae, 7 of 30 strains inhibited
S. pneumoniae = assay: as above; format: cell-based, Streptococcus pneumoniae; conditions: Streptococcus pneumoniae, PSSP, all but 3 strains inhibited
S. pyogenes = assay: as above; format: cell-based; conditions: Streptococcus pyogenes, S. pyogenes
[7] = tested on: Streptococcus spp. [Group C]; assay: as above; format: cell-based; conditions: Streptococcus, Group C streptococci
S. agalactiae = assay: as above; format: cell-based; conditions: Streptococcus agalactiae, S. agalactiae
[8] = tested on: Streptococcus constellatus; assay: In vitro MIC testing against anaerobic bacteria; format: cell-based; conditions: ATCC27823
[9] = tested on: Prevotella melaninogenica; assay: In vitro MIC testing against anaerobic bacteria; format: cell-based
[10] = Escherichia coli, read-out: MIC50
[11] = Escherichia coli, read-out: MIC90

Row | SMILES | S. pneumoniae PBS1339 RTI PD50 (S. pneumoniae PBS 1339) | ED50 (S. aureus RN450-1 [1]) | S. aureus RN450-1 IPC PD50 (S. aureus RN450-1 [2]) | Mean Percent Inflammation Compared to Untreated Controls ([3]; 75 mg/kg IP) | Mean Percent Inflammation Compared to Untreated Controls ([3]; 100 mg/kg IP) | MIC50 (Salmonella spp.) | MIC90 (Salmonella spp.) | MIC Range (E. coli) | MIC (E. coli; Escherichia coli) | MIC50 (E. coli; [10]) | MIC90 (E. coli; [11]) | Mean Percent Inflammation Compared to Untreated Controls ([3]; 25 mg/kg IP) | Mean Percent Inflammation Compared to Untreated Controls ([3]; 50 mg/kg IP) | other results
1 | C[C@H]1c2cccc(O)c2C(=O)C2=C(O)[C@]3(O)C(=O)C(C(N)=O)=C(O)[C@@H](N(C)C)[C@@H]3[C@@H](O)[C@@H]21 [Doxycycline, doxycycline] | 7.18 mg/kg | 8.31 mg/kg | 0.30 mg/kg | 68% | 36% | 2 µg/mL (≈ 4.5 µM) | 32 µg/mL (≈ 72 µM) | 64-64 μg/mL | 64 µg/mL (≈ 144 µM) | 2 µg/mL (≈ 4.5 µM) | 32 µg/mL (≈ 72 µM) | – | – | –
2 | CON(C)Cc1ccc(O)c2c1C[C@H]1C[C@H]3[C@H](N(C)C)C(O)=C(C(N)=O)C(=O)[C@@]3(O)C(O)=C1C2=O [Comparative Example 1, (4S,4aS,5aR,12aS)-4-dimethylamino-3,10,12,12a-tetrahydroxy-7-[(methoxy(methyl)amino)-methyl]-1,11-dioxo-1,4,4a,5,5a,6,11,12a-octahydro-naphthacene-2-carboxylic acid amide] | – | – | – | – | – | – | – | – | – | – | – | – | – | Differential Scanning Calorimetry [4]: Broad endothermic; TGA weight loss ([5]; from about 30° C. to about 106° C.): 7% weight loss from about 30 °C to; TGA weight loss ([5]; from about 106° C. to about 200° C.): 8% weight loss from about 106 °C; TGA weight loss ([5]; from about 200° C. to about 300° C.): 23% weight loss from about 200 °C; β-isomer content at 0 days ([6]; 0 days): 3.6 % peak area; β-isomer content after storage ([6]; 48 hours at about 40° C. and about 75% RH): 31.7 % peak area; β-isomer content after storage ([6]; 36 days at about 25° C. and about 60% RH): 8.7 % peak area; total impurity content at 0 days ([6]; HPLC-UV, 0 days): 4.2 % peak area; total impurity content after storage ([6]; about 2 days at about 40° C. and about 75% RH): 34.6 % peak area
3 | CON(C)Cc1ccc(O)c2c1C[C@H]1C[C@H]3[C@H](N(C)C)C(O)=C(C(N)=O)C(=O)[C@@]3(O)C(O)=C1C2=O [The Active, (4S,4aS,5aR,12aS)-4-dimethylamino-3,10,12,12a-tetrahydroxy-7-[(methoxy(methyl)amino)-methyl]-1,11-dioxo-1,4,4a,5,5a,6,11,12a-octahydro-naphthacene-2-carboxylic acid amide] | 4.66 mg/kg | 8.23 mg/kg | 0.25 mg/kg | 56% | 53% | 16 µg/mL (≈ 32.8 µM) | – | – | – | – | – | 59% | 52% | MIC (E. faecium; 17 strains inhibited): ≤ 0.5 µg/mL; MIC (E. faecium; remainder of the isolates): 16 to 32 µg/mL (≈ 32.8 to 65.6 µM); inhibition for the synthesis of cell wall, DNA, RNA and lipid components (Staphylococcus aureus): less than 20%; MIC (E. cloacae): ≤ 1 µg/mL; MIC (S. pneumoniae): ≤ 0.25 µg/mL; Mean Percent Inflammation Compared to Untreated Controls ([3]; 1 mg/kg IP): 103%; Mean Percent Inflammation Compared to Untreated Controls ([3]; 5 mg/kg IP): 78%; Mean Percent Inflammation Compared to Untreated Controls ([3]; 10 mg/kg IP): 65%; Mean Percent Inflammation Compared to Untreated Controls ([3]; 150 mg/kg IP): 26%; MIC50 (E. coli): 16 µg/mL (≈ 32.8 µM); MIC90 (E. coli): > 64 µg/mL; MIC50 (E. coli; Escherichia coli, E. coli (33 isolates), read-out: MIC50): 16 µg/mL (≈ 32.8 µM); MIC (S. pyogenes; all but 6 strains inhibited): ≤ 0.25 µg/mL; MIC (S. pyogenes; elevated MICs for 5 strains): ≥ 4 µg/mL; MIC ([7]; 19 strains inhibited): ≤ 0.25 µg/mL; MIC ([7]; remainder of the isolates): 4 to 16 µg/mL (≈ 8.2 to 32.8 µM); MIC (S. agalactiae; 7 strains inhibited): ≤ 0.25 µg/mL; MIC (S. agalactiae; remainder of the isolates): 16 to 32 µg/mL (≈ 32.8 to 65.6 µM)
4 | CN(C)c1ccc(O)c2c1C[C@H]1C[C@H]3[C@H](N(C)C)C(O)=C(C(N)=O)C(=O)[C@@]3(O)C(O)=C1C2=O [Minocycline, minocycline] | – | – | 0.03 mg/kg | 54% | 21% | – | 8 µg/mL (≈ 17.5 µM) | 8 to 16 µg/mL | 16 µg/mL (≈ 35 µM) | 1 µg/mL (≈ 2.19 µM) | 8 µg/mL (≈ 17.5 µM) | 47% | 33% | MIC [8]: 16 µg/mL (≈ 35 µM); MIC [9]: 16 µg/mL (≈ 35 µM)
